Like-named read-outs stand apart in the source and are kept apart here.
Tested on: C. parvum GCH1 oocysts
Assay: Intact C. parvum oocyst assay on MDBKF5D2 cell monolayers, immunofluorescence
Type: cell-based
Settings: for inhibition at 800 µg/mL / inhibition at 100 µg/mL / inhibition at 200 µg/mL / inhibition at 400 µg/mL / inhibition at 1 µg/mL / inhibition at 10 µg/mL / inhibition at 0.1 µg/mL: Cryptosporidium parvum
Procedure: In vitro doses of drugs. Thiostrepton (Calbiochem) was dissolved in sterile complete Dulbecco's Modified Eagle Medium (DMEM) supplemented with dimethyl sulfoxide (DMSO) at 0.2% and tested at concentrations of 800, 400, 200, and 100, 10, 1 and 0.1 μg/ml.
(§1) Intact C. parvum oocyst asset 3.0×10^4 C. parvum GCH1 oocysts per well were incubated in the above-mentioned concentrations of drug at 37° C. (8% CO2) on confluent MDBKF5D2 cell monolayers in 96 well microtiter plates. The level of infection in each well was determined and analyzed by immunofluorescence assay at 48 hours, using C. parvum sporozoite rabbit anti-serum (0.1%) and fluorescein-conjugated goat anti-rabbit antibody (1.0%). Percent inhibition was calculated by subtracting the mean parasite/drug from the mean parasitelmedium, divided by the mean parasite/medium, all of which was multiplied by 100. The analysis was performed using MCID and an inverted microscope.
In vitro doses of drugs. Thiostrepton (Calbiochem) and Phavic (NTZ) were dissolved in sterile complete Dulbecco's Modified Eagle Medium (DMEM) supplemented with dimethyl sulfoxide (DMSO) at 0.2% and tested at concentrations of 800, 400, 200, and 100 μg/ml. NTZ was tested at concentrations of 100, 10, 1 and 0.1 μg/ml. Paromomycin (Sigma) was dissolved in DMEM and tested at concentrations of 2000, 1000, 500 and 250 μg/ml.
as §1, with “assay .” for “asset”, “plates. For some monolayers, the oocysts were incubated in DMEM on the cell monolayers for four hours, at which time the monolayers were washed and then drug was added to the wells.” for “plates.”, “parasite/medium,” for “parasitelmedium,”
In vitro doses of drugs. Thiostrepton (Calbiochem), Phavic (NTZ) were dissolved in sterile complete Dulbecco's Modified Eagle Medium (DMEM) supplemented with dimethyl sulfoxide (DMSO) at 0.2%. Thiostrepton was tested at a concentration of 800 μg/ml. NTZ was tested at a concentration of 10 μg/ml. Paromomycin was dissolved in DMEM and tested at 2000 μg/ml. Cell monolayers were infected and washed, followed by the addition of drug at time intervals of 0, 2, 4, 8 and 24 hours.
as §1, with “assay.” for “asset”, “analyze” for “analyzed”, “parasite/medium,” for “parasitelmedium,”

In the case of `C=C(NC(=O)C(=C)NC(=O)c1csc(C2=N[C@@H]3c4csc(n4)[C@H]4NC(=O)c5csc(n5)[C@H]([C@](C)(O)[C@@H](C)O)NC(=O)[C@H]5CSC(=N5)/C(=C/C)NC(=O)[C@H]([C@@H](C)O)NC(=O)c5csc(n5)[C@]3(CC2)NC(=O)[C@H](C)NC(=O)C(=C)NC(=O)[C@H](C)NC(=O)[C@H]([C@@H](C)CC)N[C@@H]2C=Cc3c([C@H](C)O)cc(nc3[C@H]2O)C(=O)O[C@@H]4C)n1)C(N)=O` [Thiostrepton, thiostrepton], the inhibition at 800 µg/mL (0 h, read-out: Inhibition Percent, Table 5, 800 μg/ml, drug added at 0 hrs) is reported as 91.2%, the inhibition at 800 µg/mL (0 h, read-out: Inhibition Score, Table 5, 800 μg/ml, drug added at 0 hrs) is reported as 91 to 100% and the inhibition at 800 µg/mL (2 h, read-out: Inhibition Percent, Table 5, 800 μg/ml, drug added at 2 hrs) is reported as 91.8%. It also gave an inhibition at 800 µg/mL (2 h, read-out: Inhibition Score, Table 5, 800 μg/ml, drug added at 2 hrs) of 91 to 100%, an inhibition at 100 µg/mL (4 h, read-out: Inhibition Percent, Table 4 Washed at 4 hours, 100 μg/ml) of 61% and an inhibition at 200 µg/mL (4 h, read-out: Inhibition Percent, Table 4 Washed at 4 hours, 200 μg/ml) of 78.7%. For the same molecule, the inhibition at 400 µg/mL (4 h, read-out: Inhibition Percent, Table 4 Washed at 4 hours, 400 μg/ml) was 88.2%, the inhibition at 800 µg/mL (4 h, read-out: Inhibition Percent, Table 4 Washed at 4 hours, 800 μg/ml) was 87.4% and the inhibition at 800 µg/mL (4 h, read-out: Inhibition Percent, Table 5, 800 μg/ml, drug added at 4 hrs) was 84.5%. It also gave an inhibition at 100 µg/mL (4 h, read-out: Inhibition Score, Table 4 Washed at 4 hours, 100 μg/ml) of 56 to 70%, an inhibition at 200 µg/mL (4 h, read-out: Inhibition Score, Table 4 Washed at 4 hours, 200 μg/ml) of 71 to 90% and an inhibition at 400 µg/mL (4 h, read-out: Inhibition Score, Table 4 Washed at 4 hours, 400 μg/ml) of 71 to 90%. It also gave an inhibition at 800 µg/mL (4 h, read-out: Inhibition Score, Table 4 Washed at 4 hours, 800 μg/ml) of 71 to 90%, an inhibition at 800 µg/mL (4 h, read-out: Inhibition Score, Table 5, 800 μg/ml, drug added at 4 hrs) of 71 to 90% and an inhibition at 800 µg/mL (8 h, read-out: Inhibition Percent, Table 5, 800 μg/ml, drug added at 8 hrs) of 84.9%. It also gave an inhibition at 800 µg/mL (8 h, read-out: Inhibition Score, Table 5, 800 μg/ml, drug added at 8 hrs) of 71 to 90%, an inhibition at 800 µg/mL (24 h, read-out: Inhibition Percent, Table 5, 800 μg/ml, drug added at 24 hrs) of 75% and an inhibition at 800 µg/mL (24 h, read-out: Inhibition Score, Table 5, 800 μg/ml, drug added at 24 hrs) of 71 to 90%. The inhibition at 1 µg/mL (read-out: Inhibition Percent, Table 1, 1 μg/ml) was < 0%, the inhibition at 10 µg/mL (read-out: Inhibition Percent, Table 1, 10 μg/ml) was 12.4% and the inhibition at 100 µg/mL (read-out: Inhibition Percent, Table 1, 100 μg/ml) was 29.4%. For the same molecule, the inhibition at 0.1 µg/mL (read-out: Inhibition Percent, Table 1, .1 μg/ml) was < 0%, the inhibition at 100 µg/mL (read-out: Inhibition Percent, Table 2, 100 μg/ml) was 22.7% and the inhibition at 200 µg/mL (read-out: Inhibition Percent, Table 2, 200 μg/ml) was 51.8%. It also gave an inhibition at 400 µg/mL (read-out: Inhibition Percent, Table 2, 400 μg/ml) of 72.6%, an inhibition at 800 µg/mL (read-out: Inhibition Percent, Table 2, 800 μg/ml) of 87.8% and an inhibition at 100 µg/mL (read-out: Inhibition Percent, Table 3 Unwashed, 100 μg/ml) of 35.4%. The inhibition at 200 µg/mL (read-out: Inhibition Percent, Table 3 Unwashed, 200 μg/ml) was 68.2%, the inhibition at 400 µg/mL (read-out: Inhibition Percent, Table 3 Unwashed, 400 μg/ml) was 87.4% and the inhibition at 800 µg/mL (read-out: Inhibition Percent, Table 3 Unwashed, 800 μg/ml) was 91.4%. The inhibition at 100 µg/mL (read-out: Inhibition Percent, Table 6, 100 μg/ml) was 36.5%, the inhibition at 200 µg/mL (read-out: Inhibition Percent, Table 6, 200 μg/ml) was 65.7% and the inhibition at 400 µg/mL (read-out: Inhibition Percent, Table 6, 400 μg/ml) was 79%. It also gave an inhibition at 800 µg/mL (read-out: Inhibition Percent, Table 6, 800 μg/ml) of 83.7%, an inhibition at 1 µg/mL (read-out: Inhibition Score, Table 1, 1 μg/ml) of 0 to 30% and an inhibition at 10 µg/mL (read-out: Inhibition Score, Table 1, 10 μg/ml) of 0 to 30%. It also gave an inhibition at 100 µg/mL (read-out: Inhibition Score, Table 1, 100 μg/ml) of 0 to 30%, an inhibition at 0.1 µg/mL (read-out: Inhibition Score, Table 1, .1 μg/ml) of 0 to 30% and an inhibition at 100 µg/mL (read-out: Inhibition Score, Table 2, 100 μg/ml) of 0 to 30%. For the same molecule, the inhibition at 200 µg/mL (read-out: Inhibition Score, Table 2, 200 μg/ml) was 31 to 55%, the inhibition at 400 µg/mL (read-out: Inhibition Score, Table 2, 400 μg/ml) was 71 to 90% and the inhibition at 800 µg/mL (read-out: Inhibition Score, Table 2, 800 μg/ml) was 71 to 90%. For the same molecule, the inhibition at 100 µg/mL (read-out: Inhibition Score, Table 3 Unwashed, 100 μg/ml) was 31 to 55%, the inhibition at 200 µg/mL (read-out: Inhibition Score, Table 3 Unwashed, 200 μg/ml) was 56 to 70% and the inhibition at 400 µg/mL (read-out: Inhibition Score, Table 3 Unwashed, 400 μg/ml) was 71 to 90%. The inhibition at 800 µg/mL (read-out: Inhibition Score, Table 3 Unwashed, 800 μg/ml) was 91 to 100%, the inhibition at 100 µg/mL (read-out: Inhibition Score, Table 6, 100 μg/ml) was 31 to 55% and the inhibition at 200 µg/mL (read-out: Inhibition Score, Table 6, 200 μg/ml) was 56 to 70%. The inhibition at 400 µg/mL (read-out: Inhibition Score, Table 6, 400 μg/ml) was 71 to 90%, the inhibition at 800 µg/mL (read-out: Inhibition Score, Table 6, 800 μg/ml) was 71 to 90% and the “Parasite Count” value (Table 1, 1 μg/ml) was 1193.19. The “Parasite Count” value (Table 1, 10 μg/ml) was 909.25, the “Parasite Count” value (Table 1, 100 μg/ml) was 732.31 and the “Parasite Count” value (Table 1, .1 μg/ml) was 1052.13. For the same molecule, the “Parasite Count” value (Table 2, 100 μg/ml) was 943.31, the “Parasite Count” value (Table 2, 200 μg/ml) was 587.81 and the “Parasite Count” value (Table 2, 400 μg/ml) was 334.06. The “Parasite Count” value (Table 2, 800 μg/ml) was 149.25, the “Parasite Count” value (Table 3 Unwashed, 100 μg/ml) was 795.63 and the “Parasite Count” value (Table 3 Unwashed, 200 μg/ml) was 391.19. For the same molecule, the “Parasite Count” value (Table 3 Unwashed, 400 μg/ml) was 154.88, the “Parasite Count” value (Table 3 Unwashed, 800 μg/ml) was 106.06 and the “Parasite Count” value (Table 4 Washed at 4 hours, 100 μg/ml) was 543.88. For the same molecule, the “Parasite Count” value (Table 4 Washed at 4 hours, 200 μg/ml) was 297.19, the “Parasite Count” value (Table 4 Washed at 4 hours, 400 μg/ml) was 164.31 and the “Parasite Count” value (Table 4 Washed at 4 hours, 800 μg/ml) was 176.31. The “Parasite Count” value (Table 5, 800 μg/ml, drug added at 0 hrs) was 112.44, the “Parasite Count” value (Table 5, 800 μg/ml, drug added at 2 hrs) was 104.19 and the “Parasite Count” value (Table 5, 800 μg/ml, drug added at 4 hrs) was 196.81. For the same molecule, the “Parasite Count” value (Table 5, 800 μg/ml, drug added at 8 hrs) was 192.56, the “Parasite Count” value (Table 5, 800 μg/ml, drug added at 24 hrs) was 318.25 and the “Parasite Count” value (Table 6, 100 μg/ml) was 871.25. For the same molecule, the “Parasite Count” value (Table 6, 200 μg/ml) was 470.69, the “Parasite Count” value (Table 6, 400 μg/ml) was 288.13 and the “Parasite Count” value (Table 6, 800 μg/ml) was 223.13. The “activity against C. parvum in vitro” value (concentrations of 200 and above, Tables 1 and 2) was “good activity”, the “effectiveness compared with PRM” value (in vitro, summary statement) was “more effective than PRM at about one-fifth the dose” and the “activity when drug is added 24 hours after infection” value (intracellular stages only) was “still highly inhibitory”.

— patent US6313090A, “Methods for treating parasitic infection using thiopeptides” (The United States of America as represented by the …, priority 2000, dated 2001)
